One data set deals with S. aureus (ATCC 12600). Description: Minimum microbicidal concentration (MMC99) assay. As to conditions: BHI diluted 1/100, 37 °C, median, n = 3. The data set is classed as cell-based. The protocol: (§1) The microbicidal activity of the synthetic peptides was assessed against S. aureus (ATCC 12600; American Type Culture Collection, Manassas, VA, USA), Escherichia coli (CCUG 31246; Culture Collection, University of Gothenburg, Sweden), and Candida albicans (ATCC 64549/CCUG31028) using an MMC assay, as described previously by […] et al. (specific details in Supporting Information, pages 10, 11).[28] The assay was performed in BHI diluted 1/100 (BHI100). […] page 11: Table S5. Energy and structural ensembles of synthesized peptides. […] Energy -3887.06 -3620.88 -4968.42 -2163.76 -2646.75 Van der Waals solv. Energy 117.32 91.57 183.20 -88.88 -139.89 Mean RMSD* (Å), mean±SD […] Heavy atoms 1.87 ± 0.33 1.77 ± 0.50 0.98 ± 0.34 0.63 ±0.22 2.88 ±0.62 MMC99 activity including salt stability measurements Antimicrobial activity of L2 and L3 in the presence of NaCl. 1Table S6. Peptide MMC99 (μg/ml) sin NaCl S. aureus E.coli C. albicans (mM) 2[…] 0 50 25 25 85 - - - - - - >200 >200 >200 150 - - - - - - >200 >200 >200 3L 0 12.5 12.5 25 12,5 6.3 6.3 12.5 6.3 12.5 […] 150 >400 >400 (-)2 >400 >400 >400 >200 >200 >200 […] or 150 mM NaCl. L2 and L3 were serially diluted in twofold steps with a starting dilution of 200 μg/ml […] All sample dilutions were run in duplicates (L2) or triplicates (L3). 2 The growth of S. aureus at 24 h in BHI 100 with 85 or 150 mM NaCl was reduced. Minimum microbicidal concentration (MMC), killing 99% of the inoculum. All microorganisms were cultured in brain-heart infusion broth (BHI) overnight on a shaker at 37°C. The cultures were thereafter transferred to fresh BHI broth in volumes constituting 10% of total, and incubated for an additional 2 h to reach exponential growth phase. The bacterial cultures were washed once in BHI diluted 1/100 (BHI100), followed by resuspension in BHI100. The cell suspensions were diluted to a density of […] (bacteria) or 2x10^7 CFU/ml (yeast), as estimated by optical density measurement at 590 nm. […] Serum stability Figure S 133. […] A) peptide L2 B) peptide L3. C) peptide L3-K. D) peptide C3.

Data set [1] has as its system Escherichia coli (CCUG 31246). The data set is described as follows: Minimum microbicidal concentration (MMC99) assay. The following applies: BHI diluted 1/100. The data set is classed as cell-based, E. coli. As to the method: as §1
The test system of data set [2] is Candida albicans (ATCC 64549/CCUG31028). The data set is described as follows: Minimum microbicidal concentration (MMC99) assay. As to conditions: BHI diluted 1/100, 37 °C, median, n = 3. The class given is cell-based, C. albicans. The protocol: as §1
A further data set relates to S. aureus. Description: microbe, parasite or virus in culture. The class given is cell-based. As to conditions: 16 h.
For a further data set, the system named is E. coli CCUG31246. The class given is cell-based. The following applies: E. coli CCUG31246; 1:10 BHI; 5 × 10^5 CFU/mL; 37 °C, 16 h, steady agitation; used as 1× MIC.
Data set [3] relates to hepatoblastoma (HepG2) cells. The class given is cell-based, human. As to the method: (§2) To confirm the peptide selectivity toward bacteria cells, cytotoxicity assays of synthesized peptides L2, L3, L3-K, and C3 against human embryonic kidney (HEK) and hepatoblastoma (HepG2) were performed (Figure 4). The cell viability was assessed using resazurin 24 h post peptide exposure. The line at 70% cell viability marks out the threshold for cytotoxic potential compared to the negative control.
(§3) Figure 4 Cell viability assessment using the resazurin assay 24 h post peptide exposure: (a) HepG2 and (b) HEK cells were treated with various concentrations of the peptides C3, L3, L3-K, and L2. Triton-X was used as a positive control. Cells cultured in pure cell media were used as negative controls and were considered to have 100% cell viability. The line represents the threshold for cytotoxicity level of 70% of cell viability compared to the negative control. Data are presented as the mean ± SD of three biological replicates of the HepG2 cells and the mean ± SD of two biological replicates of the HEK cells.
(§4) Cytotoxicity against human embryonic kidney (HEK) and hepatoblastoma (HepG2) cell lines was assessed. Cells were grown to an initial seeding density of 10 000 cells per well. Metabolic activity was determined in a resazurin-based assay. HEK and HepG2 cells were exposed to four different concentrations of the peptides for 24 h. Treatment with Triton X-100 at 1% v/v was used as a positive control. Following this exposure period, the cells were treated with resazurin at a final concentration of 0.015 mg/mL for 3 h. The metabolic activity was then determined in an resazurin-based assay. The fluorescence intensities were quantified in a Hidex Sense microplate reader using an excitation wavelength of 544 nm and an emission wavelength of 590 nm.

Data set [4] concerns human embryonic kidney (HEK) cells. The data set is classed as cell-based. The protocol: as §2, §3, §4
Data set [5] deals with E. coli MC4100 pABCON2-fhuA ΔC/Δ4L. The data set is described as follows: DiSC(3)5 microscopy (membrane potential), outer membrane permeable strain. The class given is cell-based. As to conditions: 1× MIC; 10 and 60 min; 0.5 μM DiSC(3)5.
Experimental: To test this hypothesis, we employed an E. coli strain that overexpresses the outer membrane porin FhuA, making these cells more permeable to most fluorescence dyes including DiSC(3)5.[41]
The membrane potential of E. coli CCUG31246 and E. coli MC4100 carrying pABCON2-fhuA ΔC/Δ4L was measured by DiSC(3)5 microscopy according to ref. ([40]) with minor modifications. Cells were grown in 1:10 BHI containing 50 μg/mL bovine serum albumin to an OD600 of 0.3 prior to antibiotic treatment with the respective peptides for 10 and 60 min. Samples were stained with 0.5 μM DiSC(3)5 for 15 min (added 5 min before adding antibiotics for the 10 min time point and after 45 min of antibiotic treatment for the 60 min time point). Stained samples were spotted on 1.2% agarose, sealed with a gene frame, and imaged immediately. Microscopy was performed as described above, and fluorescence intensity was analyzed with the same parameters used for propidium iodide detection.

The record followed here is PMC10788856, “Mimicking Nonribosomal Peptides from the Marine Actinomycete Streptomyces sp. H-KF8 Leads to Antimicrobial Peptides” (ACS Infectious Diseases, 2023).

Numbered stars: 1 amine (or outer) side, 2 acyl side, 3 side chain; on linkers, the order of the positions; unused ones are H or OH. Bridge positions count the residues as written; N and C are the ends. Square brackets hold non-standard residues; d marks the D form. Peptide text beside a SMILES is read from it. Tyr(3-NO2) = N[C@@H](Cc1ccc(O)c([N+](=O)[O-])c1)C(=O)O; Glutaryl = O=C(CCCC(=O)[*:2])[*:1]; Orn = NCCC[C@H](N)C(=O)O Where only a bound is given, the exact number is not on record here.

As to `CC(C)[C@H]1NC(=O)[C@H](CCCN)NC(=O)[C@H]([C@@H](C)O)NC(=O)[C@H](CCCN)NC(=O)[C@H](Cc2c[nH]c3ccccc23)NC(=O)[C@@H](C)NC(=O)[C@@H](C(C)C)NC(=O)[C@@H](C)NC(=O)[C@H](Cc2c[nH]c3ccccc23)NC(=O)CCCC(=O)NCCCC[C@@H](C(N)=O)NC(=O)[C@H](Cc2ccc(O)c([N+](=O)[O-])c2)NC1=O` [C3] (W[dA][dV][dA]W[Orn]T[Orn][dV][Tyr(3-NO2)]K-NH2; linker N-11 via Glutaryl), the “S. aureus MMC99 6 h” value in the data set on S. aureus (ATCC 12600) (6 h) was more than 100 µg/mL. The “S. aureus MMC99 24 h” value in the data set with S. aureus (ATCC 12600) (24 h) is more than 100 µg/mL. The “S. aureus MMC99 2 h” value in the data set on S. aureus (ATCC 12600) (lowest concentration killing 99% of inoculum, 2 h, two-fold dilutions 100-1.6 μg/mL) was more than 100 µg/mL. Moreover, the “active concentrations against E. coli (MMC99, text)” value in data set [1] is not below 100 µg/mL. The “E. coli MMC99 2 h” value in data set [1] (37 °C, 2 h, median, n = 3) is more than 100 µg/mL. Also, the “E. coli MMC99 6 h” value in data set [1] (37 °C, 6 h, median, n = 3) is more than 100 µg/mL. In addition, in data set [1] (37 °C, 24 h, median, n = 3), the “E. coli MMC99 24 h” value is 100 µg/mL. In data set [2] (2 h), the “C. albicans MMC99 2 h” value was more than 100 µg/mL. Besides, the “C. albicans MMC99 6 h” value in data set [2] (6 h) is more than 100 µg/mL. Also, in data set [2] (24 h), the “C. albicans MMC99 24 h” value is more than 100 µg/mL. For the same molecule, in the data set with S. aureus, the “S. aureus MIC” value was more than 512 µg/mL. Also, the “MIC obtained for mechanistic experiments” value with E. coli CCUG31246 turned out to be 512 µg/mL. The “cytotoxicity, cell viability HepG2” value in data set [3] was “at the highest tested concentration seems to have cytotoxic properties”. Besides, the “cytotoxicity, cell viability HEK” value in data set [4] is “at the highest tested concentration seems to have cytotoxic properties”. The “membrane depolarization in the FhuA-overexpressing strain” value in data set [5] is “stronger depolarization in the FhuA-overexpressing strain”.
